{"source": "patent US4512986A", "about": "“Progrestationally active steroids” (priority 1983, dated 1985)", "key": {"[1]": {"target": "T1, Cytosol Progesterone Receptor of the Estrogen-primed Immature Rabbit Uterus (Oryctolagus cuniculus, UniProt P06186)", "T1 construct": "cytosol progesterone receptor of the estrogen-primed immature rabbit uterus; tissue Dutchland Laboratories, Inc., Denver, Pa (animals); host or cells: uterus cytosol of estradiol-treated immature female New Zealand White rabbits", "T1 sequence (P06186 1-930)": "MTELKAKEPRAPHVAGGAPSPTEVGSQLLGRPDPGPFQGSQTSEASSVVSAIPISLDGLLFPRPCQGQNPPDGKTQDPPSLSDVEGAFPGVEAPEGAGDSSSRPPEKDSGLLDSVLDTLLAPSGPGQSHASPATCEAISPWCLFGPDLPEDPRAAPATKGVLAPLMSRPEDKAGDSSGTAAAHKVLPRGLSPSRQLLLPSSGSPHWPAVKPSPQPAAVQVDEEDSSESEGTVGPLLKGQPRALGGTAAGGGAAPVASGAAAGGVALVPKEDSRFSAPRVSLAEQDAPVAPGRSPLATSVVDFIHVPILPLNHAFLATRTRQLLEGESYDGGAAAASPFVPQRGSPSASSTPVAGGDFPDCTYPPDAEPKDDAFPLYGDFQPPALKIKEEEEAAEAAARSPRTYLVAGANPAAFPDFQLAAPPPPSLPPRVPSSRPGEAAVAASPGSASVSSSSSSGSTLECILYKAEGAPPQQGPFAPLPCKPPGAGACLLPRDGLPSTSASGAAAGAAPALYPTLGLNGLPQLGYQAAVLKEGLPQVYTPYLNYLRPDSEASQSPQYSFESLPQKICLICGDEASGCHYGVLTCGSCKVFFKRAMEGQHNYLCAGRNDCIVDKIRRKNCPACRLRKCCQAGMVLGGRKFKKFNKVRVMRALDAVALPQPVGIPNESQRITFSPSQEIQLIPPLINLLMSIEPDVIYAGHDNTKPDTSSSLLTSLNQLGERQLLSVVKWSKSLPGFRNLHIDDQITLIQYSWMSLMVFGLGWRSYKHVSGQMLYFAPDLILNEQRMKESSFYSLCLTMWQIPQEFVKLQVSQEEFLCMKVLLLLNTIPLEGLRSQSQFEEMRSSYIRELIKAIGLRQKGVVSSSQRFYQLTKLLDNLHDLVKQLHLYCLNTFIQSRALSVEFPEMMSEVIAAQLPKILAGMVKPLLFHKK", "experiment": "Relative binding affinity for progesterone receptor (competition with 3H-progesterone)", "design": "species or system rabbit (New Zealand White)", "protocol": "RBA values recorded at 0° C. after short incubation times (e.g., 2 hr) mainly reflect differences in the association rate constants of the competing ligands, whereas those measured after long incubation times (e.g., 16 to 24 hr) and/or higher temperatures predominantly are influenced by differences in the dissociation rate constants of the competing ligands. RBA's determined after short incubation times primarily reflect the association of the competitor compared to the natural hormone. Conversely, RBA's measured after long incubation times reflect the dissociation rate of the competitor compared to the natural hormone.\nThe assay components are combined, allowed to equilibrate, and unbound radioactivity removed by charcoal adsorption.\nAnimal species. Immature female New Zealand White rabbits weighing 0.8 to 1.0 kg (Dutchland Laboratories, Inc., Denver, Pa).\nPretreatment. Subcutaneous treatment with 15 μg 17β-estradiol/0.6 ml sesame oil each morning (0830 to 0930 hr) for three days. Animals sacrificed 24 hr after final injection.\nTissue. Uterus; each uterus weighed about 1.0 g and two or three uteri were pooled for each assay.\nBuffer. (A) 0.01M TES, pH 7.4, 1 mM EDTA, 0.012M thioglycerol and 30% glycerol for cytosol preparation and ^3 H-steroid, unlabeled hormone and compound solutions. (B) 0.01M TES, pH 7.4, 1 mM EDTA and 0.012M thioglycerol for charcoal solution.\nHomogenization. Five or six 5-second bursts with 30 second cooling periods between bursts using Brinkman Polytron Pt. 10 at 3.5 rheostat setting.\nTemperature. 0°-4° C. for all steps.\nCentrifugation. 45,000 rpm for 1 hr, 50 Ti rotor, Beckman L8-80 ultracentrifuge.\nIncubation. 16-18 hr at 4°-6° C.\nConcentations. 1×10^-10 M to 1×10^-5 M (7 concentrations).\nMethod. Charcoal adsorption method used to remove unbound radioactivity. Five-tenths ml of dextran-coated charcoal (0.5% Norit A and 0.05% dextran T-70) added to all tubes except total radioactivity tubes (0.5 ml buffer [B] added), tubes vortexed 3-5 sec, allowed to sit for 10 minutes and centrifuged 10 minutes at 2000 rpm in Beckman TJ-6 centrifuge at 0°-4° C.\nData Interpretation. […] The relative binding affinity (RBA) of each compound was calculated by using the following equation. [formula] where"}, "[2]": {"system": "uterine endometrium of estrone-primed immature rabbits", "experiment": "Clauberg assay (progestational activity, McPhail)", "assay_type": "in vivo, rabbit (New Zealand White)", "conditions": "for McPhail Index (0-4) (X ± S.D.): 0 none, 4 maximal"}, "[3]": {"conditions": "Assay 2, 16-18 hour incubation, progesterone = 100, 5α-dihydro-17α-ethynyl: lot 1"}, "[4]": {"conditions": "Assay 3, 16-18 hour incubation, progesterone = 100, 5α-dihydro-17α-ethynyl: lot 1"}, "[5]": {"conditions": "Assay 4, 16-18 hour incubation, progesterone = 100"}, "[6]": {"conditions": "Assay 5, 16-18 hour incubation, progesterone = 100"}}, "data": [{"smiles": "C#C[C@]1(C(C)=O)CC[C@H]2[C@@H]3CC[C@H]4CC(=O)CC[C@]4(C)[C@H]3CC[C@@]21C", "note": "[5α-Dihydro-17α-ethynylprogesterone, 17α-Ethynyl-5α-pregnane-3,20-dione]", "values": [{"measurement": "RBA, mean of assays (X±S.D.)", "setting": "[1]; 16 to 18 hour incubation at 0° C., spurious value 11 excluded", "value": "154±23"}, {"measurement": "RBA", "setting": "[1]; Assay 1, 16-18 hour incubation, progesterone = 100, 5α-dihydro-17α-ethynyl: lot 1", "value": 11, "unit": "%"}, {"measurement": "RBA", "setting": "[1]; [3]", "value": 186, "unit": "%"}, {"measurement": "RBA", "setting": "[1]; [4]", "value": 144, "unit": "%"}, {"measurement": "RBA", "setting": "[1]; Assay 3, lot 2, 16-18 hour incubation, progesterone = 100", "value": 133, "unit": "%"}, {"measurement": "RBA", "setting": "[1]; two-hour incubation at 0° C.", "value": 211}, {"measurement": "Uterine Weight (X ± S.D.)", "setting": "[2]; oral, 100 μg/rabbit daily", "value": 1.00, "unit": "g"}, {"measurement": "McPhail Index (0-4) (X ± S.D.)", "setting": "[2]; oral, 100 μg/rabbit daily", "value": 0}, {"measurement": "Uterine Weight (X ± S.D.)", "setting": "[2]; oral, 200 μg/rabbit daily", "value": "1.30 ± 0.22", "unit": "g"}, {"measurement": "McPhail Index (0-4) (X ± S.D.)", "setting": "[2]; oral, 200 μg/rabbit daily", "value": "0.04 ± 0.06"}, {"measurement": "Uterine Weight (X ± S.D.)", "setting": "[2]; oral, 400 μg/rabbit daily", "value": "1.10 ± 0.08", "unit": "g"}, {"measurement": "McPhail Index (0-4) (X ± S.D.)", "setting": "[2]; oral, 400 μg/rabbit daily", "value": "0.04 ± 0.06"}, {"measurement": "progestational response, in words", "setting": "[2]; sc 5, 10, 20, 100, 200, 400 and oral 100, 200, 400 μg/rabbit/day", "value": "inactive at all doses examined"}, {"measurement": "Uterine Weight (X ± S.D.)", "setting": "[2]; sc, 5 μg/rabbit daily", "value": "0.90 ± 0.29", "unit": "g"}, {"measurement": "McPhail Index (0-4) (X ± S.D.)", "setting": "[2]; sc, 5 μg/rabbit daily", "value": "0.08 ± 0.12"}, {"measurement": "Uterine Weight (X ± S.D.)", "setting": "[2]; sc, 10 μg/rabbit daily", "value": "1.33 ± 0.09", "unit": "g"}, {"measurement": "McPhail Index (0-4) (X ± S.D.)", "setting": "[2]; sc, 10 μg/rabbit daily", "value": "0.29 ± 0.24"}, {"measurement": "Uterine Weight (X ± S.D.)", "setting": "[2]; sc, 20 μg/rabbit daily", "value": "1.03 ± 0.17", "unit": "g"}, {"measurement": "McPhail Index (0-4) (X ± S.D.)", "setting": "[2]; sc, 20 μg/rabbit daily", "value": "0.04 ± 0.06"}, {"measurement": "Uterine Weight (X ± S.D.)", "setting": "[2]; sc, 100 μg/rabbit daily", "value": "1.18 ± 0.25", "unit": "g"}, {"measurement": "McPhail Index (0-4) (X ± S.D.)", "setting": "[2]; sc, 100 μg/rabbit daily", "value": "0.13 ± 0.13"}, {"measurement": "Uterine Weight (X ± S.D.)", "setting": "[2]; sc, 200 μg/rabbit daily", "value": "1.15 ± 0.07", "unit": "g"}, {"measurement": "McPhail Index (0-4) (X ± S.D.)", "setting": "[2]; sc, 200 μg/rabbit daily", "value": "0.58 ± 0.16"}, {"measurement": "Uterine Weight (X ± S.D.)", "setting": "[2]; sc, 400 μg/rabbit daily", "value": "1.24 ± 0.09", "unit": "g"}, {"measurement": "McPhail Index (0-4) (X ± S.D.)", "setting": "[2]; sc, 400 μg/rabbit daily", "value": "0.33 ± 0.06"}]}, {"smiles": "C=C[C@]1(C(C)=O)CC[C@H]2[C@@H]3CC[C@H]4CC(=O)CC[C@]4(C)[C@H]3CC[C@@]21C", "note": "[5α-Dihydro-17α-vinylprogesterone]", "values": [{"measurement": "RBA", "setting": "[1]; [3]", "value": 47, "unit": "%"}, {"measurement": "RBA", "setting": "[1]; [4]", "value": 51, "unit": "%"}]}, {"smiles": "C#C[C@@]1(C(C)=O)CC[C@H]2[C@@H]3C[C@H](C)C4=CC(=O)CC[C@]4(C)[C@H]3CC[C@@]21C", "note": "[6α-Methyl-17α-acetylpregn-4-ene-20-yn-3-one]", "values": [{"measurement": "RBA", "setting": "[1]; [5]", "value": 5, "unit": "%"}, {"measurement": "RBA", "setting": "[1]; [6]", "value": 6, "unit": "%"}]}, {"smiles": "C#C[C@]1(C(C)=O)CC[C@H]2[C@@H]3C[C@H](C)C4=CC(=O)CC[C@]4(C)[C@H]3CC[C@@]21C", "note": "[6α-Methyl-17α-ethynylprogesterone, 17α-Ethynyl-6α-methylprogesterone]", "values": [{"measurement": "RBA", "setting": "[1]; [5]", "value": 63, "unit": "%"}, {"measurement": "RBA", "setting": "[1]; [6]", "value": 67, "unit": "%"}, {"measurement": "RBA", "setting": "[1]; Assay 6, 16-18 hour incubation, progesterone = 100", "value": 91, "unit": "%"}, {"measurement": "potency relative to 6α-methyl-17-acetoxyprogesterone (Provera), in words", "setting": "[2]; both given orally", "value": "at least as twice as potent"}, {"measurement": "progestational potency relative to subcutaneous progesterone, in words", "setting": "[2]; compound given orally, progesterone sc", "value": "four times more potent than progesterone administered subcutaneously"}, {"measurement": "Uterine Weight (X ± S.D.)", "setting": "[2]; oral, 10 μg/rabbit daily", "value": "1.28 ± 0.37", "unit": "g"}, {"measurement": "McPhail Index (0-4) (X ± S.D.)", "setting": "[2]; oral, 10 μg/rabbit daily", "value": "0.67 ± 0.42"}, {"measurement": "Uterine Weight (X ± S.D.)", "setting": "[2]; oral, 25 μg/rabbit daily", "value": "2.43 ± 0.41", "unit": "g"}, {"measurement": "McPhail Index (0-4) (X ± S.D.)", "setting": "[2]; oral, 25 μg/rabbit daily", "value": "2.67 ± 1.00"}, {"measurement": "Uterine Weight (X ± S.D.)", "setting": "[2]; oral, 50 μg/rabbit daily", "value": "3.21 ± 0.79", "unit": "g"}, {"measurement": "McPhail Index (0-4) (X ± S.D.)", "setting": "[2]; oral, 50 μg/rabbit daily", "value": "3.92 ± 0.12"}, {"measurement": "Uterine Weight (X ± S.D.)", "setting": "[2]; oral, 100 μg/rabbit daily", "value": "3.28 ± 0.35", "unit": "g"}, {"measurement": "McPhail Index (0-4) (X ± S.D.)", "setting": "[2]; oral, 100 μg/rabbit daily", "value": "4.00 ± 0.00"}, {"measurement": "Uterine Weight (X ± S.D.)", "setting": "[2]; sc, 2.5 μg/rabbit daily", "value": "1.31 ± 0.20", "unit": "g"}, {"measurement": "McPhail Index (0-4) (X ± S.D.)", "setting": "[2]; sc, 2.5 μg/rabbit daily", "value": "0.21 ± 0.06"}, {"measurement": "Uterine Weight (X ± S.D.)", "setting": "[2]; sc, 5 μg/rabbit daily", "value": "1.84 ± 0.48", "unit": "g"}, {"measurement": "McPhail Index (0-4) (X ± S.D.)", "setting": "[2]; sc, 5 μg/rabbit daily", "value": "1.29 ± 1.40"}, {"measurement": "Uterine Weight (X ± S.D.)", "setting": "[2]; sc, 10 μg/rabbit daily", "value": "3.68 ± 0.31", "unit": "g"}, {"measurement": "McPhail Index (0-4) (X ± S.D.)", "setting": "[2]; sc, 10 μg/rabbit daily", "value": "3.92 ± 0.12"}, {"measurement": "Uterine Weight (X ± S.D.)", "setting": "[2]; sc, 20 μg/rabbit daily", "value": "3.69 ± 0.62", "unit": "g"}, {"measurement": "McPhail Index (0-4) (X ± S.D.)", "setting": "[2]; sc, 20 μg/rabbit daily", "value": "4.00 ± 0.00"}]}]}
